Test [1] concerns GRP receptor binding in T47D human breast cancer cells. The experiment in a line: Effect of drug treatment on GRP receptor binding (177Lu-AMBA) and proliferation in T-47D cells. The settings on record: for increase in 177Lu-AMBA binding (GRP receptor specific signal per cell) / decrease in 177Lu-AMBA binding (GRP receptor specific signal per cell): relative to untreated control; for increase in 177Lu-AMBA binding (GRP receptor specific signal per cell): drug 0.1-1.0 μM (gefitinib 0.1-10 μM); for decrease in 177Lu-AMBA binding (GRP receptor specific signal per cell): drug 0.1-1.0 μM (4-OH Tamoxifen 0.001-0.1 μM); for change in 177Lu-AMBA binding (GRP receptor specific signal per cell), T47D: Table 25, range 0.001-0.1 μM, vs untreated controls; for GRP receptor specific signal per cell (177Lu-AMBA binding) versus untreated controls, in words: drug 0.1-1.0 μM (β2-estradiol 1 nM). Type of test: cell-based. An excerpt: T-47D breast cancer cells (human metastatic mammary gland ductal adenocarcinoma isolated from pleural effusion, ER+, PR+) were obtained from the American Type Culture Collection.

Test [2] deals with GRP receptor binding in PC-3 prostate cancer cells. The experiment in a line: Effect of drug treatment on GRP receptor binding (177Lu-AMBA) and proliferation in PC-3 cells. The conditions noted are these: for decrease in 177Lu-AMBA binding (GRP receptor specific signal per cell): drug 0.1-1.0 μM (gefitinib 0.1-10 μM); for change in 177Lu-AMBA binding (GRP receptor specific signal per cell), PC-3: Table 25, range 0.001-0.1 μM, vs untreated controls; for GRP receptor specific signal per cell (177Lu-AMBA binding) versus untreated controls, in words: drug 0.1-1.0 μM (4-OH Tamoxifen 0.001-0.1 μM).
Procedure: (§1) RPMI 1640 supplemented with 20 mM HEPES, 0.1% BSA (w/v), 0.5 mM PMSF (AEBSF), bacitracin (50 mg/500 ml), pH 7.4.
(§2) Treatment: BT-474 cells were plated on Day 0 (see above); approximately 24-48 h after plating, treatment Days 1 and 2 (DT1, DT2), the medium was removed and replaced with fresh growth medium (control), or growth medium with the addition of lapatinib (0.1-1.0 μM). […] Incubations were stopped by the addition of 200 μL of ice-cold binding buffer. Plates were washed three more times with binding buffer, 140 μL of scintillation fluid was added to each well, the plates were sealed and analyzed on a Microp plate reader (Microbeta Trilux, Perkin-Elmer).
(§3) Treatment: BT-474 cells were plated on Day 0 and treated on Days 1 and 2 (DT1, DT2).

Test [3] has as its system GRP receptor binding in BT-474 human breast cancer cells. The experiment in a line: Effect of drug treatment on GRP receptor binding (177Lu-AMBA) and proliferation in BT-474 cells. The conditions noted are these: for decrease in 177Lu-AMBA binding (GRP receptor specific signal per cell): relative to untreated control, drug 0.1-1.0 μM (4-OH Tamoxifen 0.001-0.1 μM); for change in 177Lu-AMBA binding (GRP receptor specific signal per cell), BT-474: Table 25, range 0.001-0.1 μM, vs untreated controls; for GRP receptor specific signal per cell (177Lu-AMBA binding) versus untreated controls, in words: drug 0.1-1.0 μM (gefitinib 0.1-10 μM).
Procedure: Cells for binding experiments were plated on Day 0 at 5.6×10^4 cells/cm^2 in 96-well white/clear bottom microtiter plates (Falcon Optilux-I), or 96 well black/clear collagen I cellware plates (Beckton Dickinson Biocoat).
as §1, §2, §3

The next test deals with PC3 cells. As to the kind of experiment: Internalization and efflux assay in PC3 cells (125I-BBN, 177Lu complexes). The class given is cell-based, human. The conditions noted are these: 37° C., 125I-BBN and Lu-177 complexes; for Efflux (2 h): after 40 min loading.
Test [4] relates to PC3 tumor-bearing nude mouse model. The experiment in a line: Radiotherapy efficacy studies (short and long term survival). The class given is in vivo. The conditions noted are these: 177Lu labeled; for survival, Short Term Efficacy Study: 30 mCi/kg i.v. or s.c., versus untreated control and DO3A-monoamide-Aoc-QWAVGHLM-NH2 control; for survival, Long Term Efficacy Study: 30 mCi/kg, up to 120 days, n=46, p<0.0001 versus controls. How it is done:
Radiotherapy studies were performed using the PC3 tumor-bearing nude mouse model. […] (n=12 for each treatment group for up to days, and n=36 for the pooled untreated control group for up to 31 days). […] The subjects were housed in a barrier environment for the duration of the study. Body weight and tumor size (by caliper measurement) were collected on each subject 3 times per week for the duration of the study. Criteria for early termination included: death; loss of total body weight (TBW) equal to or greater than 20%; tumor size equal to or greater than 2 cm^3.

The target in the next test is T1, NMB-R (Rattus norvegicus, UniProt P24053).
T1 construct: C6, an NMB-R expressing rodent glioblastoma cell line; host or cells: C6 glioma cells (intact, plated)
T1 sequence (P24053 1-390): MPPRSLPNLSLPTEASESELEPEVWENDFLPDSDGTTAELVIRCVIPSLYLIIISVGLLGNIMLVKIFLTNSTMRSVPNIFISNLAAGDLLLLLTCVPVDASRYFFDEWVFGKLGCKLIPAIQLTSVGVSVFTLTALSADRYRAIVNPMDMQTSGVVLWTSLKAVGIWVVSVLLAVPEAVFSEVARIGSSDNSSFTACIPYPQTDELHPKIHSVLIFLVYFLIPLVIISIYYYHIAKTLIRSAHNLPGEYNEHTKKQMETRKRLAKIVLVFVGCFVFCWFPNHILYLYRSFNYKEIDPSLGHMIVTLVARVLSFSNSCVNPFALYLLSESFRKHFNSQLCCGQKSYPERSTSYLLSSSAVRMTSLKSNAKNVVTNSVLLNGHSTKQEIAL
The experiment in a line: Competition with 125I-NMB for NMB-R in C6 cells. The conditions noted are these: cut off 10× the IC50 of [Tyr4]-BBN; for GRP-R and NMB-R (binds both with similar affinity): class from IC50 with 125I-NMB on C6 cells; for receptor subtype preference (GRP-R versus NMB-R): from IC50 with 125I-NMB on C6 cells and 125I-BBN on PC3 cells. Type of test: binding, rodent.

Setting [5] is: PC-3, relative to untreated control.

Procedure for NMB-R: Two cell lines, C6, an NMB-R expressing rodent glioblastoma cell line and PC3, a GRP-R expressing human prostate cancer cell line, were used in this assay. The affinity of various unlabeled compounds for each receptor subtype (NMB-R and GRP-R) was determined indirectly by measuring its ability to compete with the binding of ^125I-NMB or ^125I-BBN to its corresponding receptors in C6 and PC3 cells.
Cells for the assays were plated at a concentration of 9.6×10^4/well in 48 well poly-lysine coated plates (Beckton Dickinson Biocoat). PC3 were obtained from ATCC(CRL-1435) and cultured in RPMI 1640 (ATCC) supplemented with 2 mM L-glutamine, 1.5 g/L Sodium bicarbonate, 10 mM HEPES and 10% FBS. […] PC3 cells for the assays were plated at a concentration of 2.0×10^4 cells/well in 96-well white/clear bottom plates (Falcon Optilux-I). Plates were used for the assays on day 2 of the post-plating.
RPMI 1640 (ATCC) containing 25 mM HEPES, 0.2% BSA fraction V, 1.0 mM AEBSF (CAS #3087-99-7) and 0.1% Bacitracin (CAS #1405-87-4), pH 7.4. Custom made ^125I-[Tyr°]NMB, >2.0 Ci/mole (Amersham Life Science) [^125I-NMB] and commercially available ^125I-[Tyr^4]BBN, >2.0 Ci/mole (Perkin Elmer Life Science) [^125I-BBN] were used as radioligands.
Using a 48-well plate assay system (for C6 study) competition experiments were performed using ^125I-NMB. […] Selection of compounds for the assay was based on linker subtype.
The binding parameters obtained from the studies were analyzed using a one-site competition non-linear regression analysis with GraphPad Prism. The relative affinity of various compounds for NMB-R in C6 cells were compared with those obtained using commercially available [Tyr^4]-BBN and [Tyro]-NMB. To distinguish the GRP-R preferring compounds from NMB-R plus GRP-R preferring compounds, IC50 values obtained for each compound were compared with those obtained from [Tyr^4-BBN with ^125I-NMB on C6 cells.
Procedure for PC3 cells: These studies were conducted in a 96-well plate. […] Incubations were stopped by the addition of 200 μl of ice-cold binding buffer. Plates were washed twice with binding buffer. To remove surface-bound radioligand, the cells were incubated with 0.2M acetic acid (in saline), pH 2.8 for 2 min. Plates were centrifuged and the acid wash media were collected to determine the amount of radioactivity which was not internalized. The cells were collected to determine the amount of internalized ^125I-BBN, and all samples were analyzed in the gamma counter. Data for the internalization assay was normalized by comparing counts obtained at the various time points with the counts obtained at the final time point (T=40 min).
For the efflux studies, after loading the PC3 cells with ^125I-BBN or radiolabeled compounds of the invention for 40 min at 37° C., the unbound material was filtered, and the % of internalization was determined as above. The cells were then resuspended in binding buffer at 37° C. for up to 3 h.

Take `CCN(CC)CCNC(=O)c1c(C)[nH]c(/C=C2\C(=O)Nc3ccc(F)cc32)c1C` [sunitinib]: the “increase in 177Lu-AMBA binding (GRP receptor specific signal per cell)” value in test [1] (T-47D) is given as “up to 13%”; in test [2] (PC-3, relative to untreated control, drug 0.1-1.0 μM), “up to 10%”. For the same compound, the “decrease in 177Lu-AMBA binding (GRP receptor specific signal per cell)” value in test [3] (BT-474) was “up to 8%”.
Turning to `CC(C)C[C@H](NC(=O)[C@H](Cc1ccccc1)NC(=O)c1cnccn1)B(O)O` [bortezomib], the “decrease in 177Lu-AMBA binding (GRP receptor specific signal per cell)” value in test [1] (T-47D) is recorded as “up to 50%”; in test [2] (setting [5]) it was “up to 60%”; in test [3] (BT-474), “up to 50%”.
Consider `CC/C(=C(\c1ccc(O)cc1)c1ccc(OCCN(C)C)cc1)c1ccccc1` [Compounds 4-OH-Tamoxifen], for which the “change in 177Lu-AMBA binding (GRP receptor specific signal per cell), T47D” value in test [1] is recorded as −35%. Moreover, the “change in 177Lu-AMBA binding (GRP receptor specific signal per cell), PC-3” value in test [2] is on record as 0%. For the same compound, the “change in 177Lu-AMBA binding (GRP receptor specific signal per cell), BT-474” value in test [3] was −73%.
Regarding `CSCC[C@H](NC(=O)[C@H](CC(C)C)NC(=O)[C@H](Cc1c[nH]cn1)NC(=O)CNC(=O)[C@@H](NC(=O)[C@H](C)NC(=O)[C@H](Cc1c[nH]c2ccccc12)NC(=O)[C@H](CCC(N)=O)NC(=O)CC[C@@H](C)[C@H]1CC[C@H]2[C@@H]3CC[C@@H]4C[C@@H](NC(=O)CNC(=O)CN5CCN(CC(=O)O)CCN(CC(=O)O)CCN(CC(=O)O)CC5)CC[C@]4(C)[C@H]3C[C@H](O)[C@]12C)C(C)C)C(N)=O` [Compound L63, N-[(3β,5β,12α)-3-[[[[[4,7,10-Tris(carboxymethyl)-1,4,7,10-tetraazacyclododec-1-yl]acetyl]amino]acetyl]amino]-12-hydroxy-24-oxocholan-24-yl]-L-glutaminyl-L-tryptophyl-L-alanyl-L-valyl-glycyl-L-histidyl-L-leucyl-L-methioninamide], in the test with PC3 cells, the “Internalisation (40 minutes)” value turned out to be 64% and the “Efflux (2 h)” value came to 0%. Besides, the “survival, Short Term Efficacy Study” value in test [4] is “increased survival”. Besides, at NMB-R, the “GRP-R and NMB-R (binds both with similar affinity)” value is given as “yes”; the “receptor subtype preference (GRP-R versus NMB-R)” value is “dual affinity for both GRP-R and NMB-R”.
For the compound `COc1cc2ncnc(Nc3ccc(F)c(Cl)c3)c2cc1OCCCN1CCOCC1` [gefitinib], in test [1] (T-47D), the “increase in 177Lu-AMBA binding (GRP receptor specific signal per cell)” value is “up to 20%”. Also, in test [2] (setting [5]), the “decrease in 177Lu-AMBA binding (GRP receptor specific signal per cell)” value is 20-40%. Also, the “GRP receptor specific signal per cell (177Lu-AMBA binding) versus untreated controls, in words” value in test [3] (BT-474) is reported as “no change”.
`CNC(=O)c1cc(Oc2ccc(NC(=O)Nc3ccc(Cl)c(C(F)(F)F)c3)cc2)ccn1` [sorafenib]: the “GRP receptor specific signal per cell (177Lu-AMBA binding) versus untreated controls, in words” value in test [1] (T-47D) is “no change”. Moreover, the “change in 177Lu-AMBA uptake on a viable cell basis, T47D” value in test [1] (Table 24, drug 0.1-1.0 μM (gefitinib 0.1-10, bortezomib 0.001-0.1), vs untreated control) was “NC (NC: Little (<10%) or no change in Lu-AMBA uptake)”. Moreover, the “decrease in 177Lu-AMBA binding (GRP receptor specific signal per cell)” value in test [2] (setting [5]) is on record as 10-20%; in test [3] (BT-474), 10-25%.
For the compound “N-[4-[[[[[4,7,10-Tris(carboxymethyl)-1,4,7,10-tetraazacyclododec-1-yl]acetyl]amino]acetyl]amino]benzoyl]-L-glutaminyl-L-tryptophyl-L-alanyl-L-valyl-glycyl-L-histidyl-L-leucyl-L-methioninamide [Compound L70]”, in the test with PC3 cells, the “Internalisation (40 minutes)” value is 70% and the “Efflux (2 h)” value is reported as 12%. Also, in test [4], the “survival, Short Term Efficacy Study” value is reported as “increased survival” and the “survival, Long Term Efficacy Study” value is recorded as “significantly increased survival”.
As to `CC(C)(C#N)c1cc(Cn2cncn2)cc(C(C)(C)C#N)c1` [anastrozole], the “decrease in 177Lu-AMBA binding (GRP receptor specific signal per cell)” value in test [1] (T-47D) and in test [2] (setting [5]) was “up to 10%” each time. Also, the “GRP receptor specific signal per cell (177Lu-AMBA binding) versus untreated controls, in words” value in test [3] (BT-474) was “no change”.
On to “N-[4-[[[[4,7,10-Tris(carboxymethyl)-1,4,7,10-tetraazacyclododec-1-yl]acetyl]glycyl]amino]-3-methoxybenzoyl]-L-glutaminyl-L-tryptophyl-1-alanyl-L-valyl-glycyl-L-histidyl-L-leucyl-L-methioninamide [Compound L240]”, for which the “receptor subtype preference (GRP-R versus NMB-R)” value at NMB-R was “selective affinity to GRP-R”.
Consider `Cc1ccc(NC(=O)c2ccc(CN3CCN(C)CC3)cc2)cc1Nc1nccc(-c2cccnc2)n1` [imatinib], for which the “increase in 177Lu-AMBA binding (GRP receptor specific signal per cell)” value in test [1] (T-47D) is given as “up to 15%”. For the same compound, the “decrease in 177Lu-AMBA binding (GRP receptor specific signal per cell)” value in test [2] (setting [5]) is 15-25%. Further, in test [3] (BT-474), the “GRP receptor specific signal per cell (177Lu-AMBA binding) versus untreated controls, in words” value is “no change”.
In the case of `C[C@]12CC[C@@H]3c4ccc(O)cc4CC[C@H]3[C@@H]1CC[C@@H]2O` [β2-estradiol], the “GRP receptor specific signal per cell (177Lu-AMBA binding) versus untreated controls, in words” value in test [1] (T-47D) is listed as “did not change”; in test [2] (PC-3), “no change”. Moreover, the “change in 177Lu-AMBA binding (GRP receptor specific signal per cell), T47D” value in test [1] is reported as 0%. Moreover, in test [2], the “change in 177Lu-AMBA binding (GRP receptor specific signal per cell), PC-3” value turned out to be 0%. Further, the “change in 177Lu-AMBA binding (GRP receptor specific signal per cell), BT-474” value in test [3] stood at 47%.
Take `CSCC[C@H](NC(=O)[C@H](CC(C)C)NC(=O)[C@H](Cc1c[nH]cn1)NC(=O)CNC(=O)[C@@H](NC(=O)[C@H](C)NC(=O)[C@H](Cc1c[nH]c2ccccc12)NC(=O)[C@H](CCC(N)=O)NC(=O)CC[C@@H](C)[C@H]1CC[C@H]2[C@@H]3[C@H](O)C[C@@H]4C[C@@H](NC(=O)CNC(=O)CN5CCN(CC(=O)O)CCN(CC(=O)O)CCN(CC(=O)O)CC5)CC[C@]4(C)[C@H]3C[C@H](O)[C@]12C)C(C)C)C(N)=O` [Compound L64, N-[(3β,5β,7α,12α)-3-[[[[[4,7,10-Tris(carboxymethyl)-1,4,7,10-tetraazacyclododec-1-yl]acetyl]amino]acetyl]amino]-7,12-dihydroxy-24-oxocholan-24-yl]-L-glutaminyl-L-tryptophyl-L-alanyl-L-valyl-glycyl-L-histidyl-L-leucyl-L-methioninamide]: in the test with PC3 cells, the “Internalisation (40 minutes)” value turned out to be 69% and the “Efflux (2 h)” value was 20%. Besides, in test [4], the “survival, Short Term Efficacy Study” value is on record as “increased survival” and the “survival, Long Term Efficacy Study” value is recorded as “significantly increased survival”. Besides, on NMB-R, the “GRP-R and NMB-R (binds both with similar affinity)” value was “yes”; the “receptor subtype preference (GRP-R versus NMB-R)” value was “dual affinity for both GRP-R and NMB-R”.
On to `CS(=O)(=O)CCNCc1ccc(-c2ccc3ncnc(Nc4ccc(OCc5cccc(F)c5)c(Cl)c4)c3c2)o1` [lapatinib], for which the “decrease in cell proliferation” value in test [1] (T-47D, at the highest concentration) was ≤ 35%; in test [3] (BT-474, at the highest concentration), ≤ 65%. The “increase in 177Lu-AMBA binding (GRP receptor specific signal per cell)” value in test [1] (T-47D) was “up to 50%”. Further, in test [2] (PC-3, 0.1-1.0 μM), the “proliferation versus untreated controls, in words” value is on record as “no change”. Besides, in test [2] (PC-3), the “GRP receptor specific signal per cell (177Lu-AMBA binding) versus untreated controls, in words” value was “no change”.
On to `C#Cc1cccc(Nc2ncnc3cc(OCCOC)c(OCCOC)cc23)c1` [erlotinib], for which the “increase in 177Lu-AMBA binding (GRP receptor specific signal per cell)” value in test [1] (T-47D) is 5-20%. The “decrease in 177Lu-AMBA binding (GRP receptor specific signal per cell)” value in test [2] (setting [5]) is on record as 5-20%. Moreover, the “GRP receptor specific signal per cell (177Lu-AMBA binding) versus untreated controls, in words” value in test [3] (BT-474) is on record as “no change”.
As to “DO3A-monoamide-8-amino-octanoic acid-BBN (7-14)”, in the test with PC3 cells, the “Internalisation (40 minutes)” value came to 89% and the “Efflux (2 h)” value is reported as 28%.

For the origin of these results see patent US20130136691A1, “GASTRIN […] PEPTIDE COMPOUNDS” (priority 2008, published 2013).
